Data on two substances can be found in US20130022620A1, “ASSAYS AND METHODS PERTAINING TO PRE-AMYLOID INTERMEDIATES” (priority 2011, published 2013).

One data set has as its system rat INS-1 β-cells. As to the kind of experiment: AlamarBlue cell viability assay of β-cells. The format is cell-based. The procedure:
Transformed rat insulinoma-1 (INS-1) β-cells (which express RAGE) are a pancreatic beta cell line commonly used for studies of h-IAPP induced toxicity. INS-1 cells were grown in RPMI 1640 supplemented with 10% fetal bovine serum (FBS), 11 mM glucose, 10 mM Hepes, 2 mM L-glutamine, 1 mM sodium pyruvate, 50 μM β-mercaptoethanol, 100 U/ml penicillin, and […] streptomycin. Cells were maintained at 37° C./5% CO2.
Cyto-toxicity was measured by AlamarBlue assay. INS-1 β-cells were seeded at a density of 30,000 cells per well in 96-well plates and cultured for 24 hours prior to stimulation with IAPP. Human and rat IAPP were dissolved and incubated in 16 mM tris HCl (pH 7.4, 25° C.) prior to cell stimulation. AlamarBlue was diluted ten-fold in culture media and cells were incubated for 5 hours at 37° C. Fluorescence (excitation 530; emission 590 nm) was measured on a Beckman Coulter DTX880 fluorescent plate reader. Values calculated were relative to those of control cells treated with buffer only. All values represent means±SEM (n=3).
Changes in cell morphology were examined by light microscopy to provide a second method of evaluating cell viability. Transformed rat INS-1 beta cells were photographed immediately prior to assessment of toxicity by Alamar blue cell viability assays. Images were taken using an Olympus BX-61 light microscope.

Data set [1] in a line: Thioflavin-T kinetics and TEM of amyloid formation by IAPP peptides. It counts as physicochemical. The method, then:
Thioflavin-T fluorescence was used to monitor the time course of h-IAPP amyloid formation in the presence and absence of sRAGE. To identify which form(s) of h-IAPP interact with RAGE, sRAGE was added to h-IAPP at various time points during the h-IAPP amyloid formation reaction. Aliquots of the reaction mixture were analyzed by adding 100 uL aliquots of the amyloid formation reaction to 96-well plates containing 8 uL of 60 uM thioflavin-T solution at various incubation times after initiation of the amyloid formation reaction. Fluorescence was measured using a Beckman Coulter DTX880 fluorescent plate reader (excitation: 445 nm and emission: 485 nm). Final solution conditions contained 16 mM tris HCl and […] thioflavin-T (pH 7.4). […] All values represent means±SEM (n=3).
Transient kinetic species of h-IAPP were characterized by TEM. TEM images confirm the presence or absence of amyloid which were indicated by thioflavin-T fluorescence. Aliquots (4 μl) were removed from the reaction mixtures monitored by thioflavin-T assays, placed on a carbon-coated 200-mesh copper grid and negatively stained with saturated uranyl acetate. The samples were imaged with a Philips CM12 transmission electron microscope at the New York University electron microscopy core facility. Final solution conditions contained 16 mM tris HCl (pH 7.4).

The next data set addresses T1, h-IAPP (Homo sapiens, UniProt P10997).
T1 sequence (P10997 34-70 limits assumed): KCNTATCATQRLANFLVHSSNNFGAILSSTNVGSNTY
The following applies: I26P point mutant; Fanling et al. 2010; cited from earlier work.

The target in data set [2] is T2, sRAGE (Homo sapiens, UniProt Q15109).
T2 construct: the soluble extracellular domain of RAGE (sRAGE); made in house; host or cells: Sf9 insect cells (baculovirus)
In words: Difference CD of IAPP peptides with sRAGE. It counts as binding. The following applies: end point of the reactions. The procedure:
CD measurements of IAPP, sRAGE and IAPP/sRAGE reactions were taken at various incubation times. Far-UV CD experiments monitor the development of secondary structure of h-IAPP species and give insight into the conformational requirement for IAPP/RAGE-binding. All CD experiments were performed on an Applied Photophysics circular dichroism spectrophotometer by directly transferring 300 μL of peptide solution from kinetic assays into a 0.1 cm quartz cuvette a few minutes prior to data collection. The CD spectra for sRAGE and tris HCl buffer was subtracted from all RAGE/IAPP mixtures. The final far-UV CD data was collected over the range of 190 to 260 nm. Final solution conditions contained 16 mM tris HCl (pH 7.4).

The target in data set [3] is T2, sRAGE. In words: Tryptophan fluorescence quenching assay of sRAGE binding. The settings on record: sRAGE added at different time points of the reaction, 1:1 molar ratio. An excerpt:
The quenching of tryptophan fluorescence indicates binding. Fluorescence measurements were made at right angle in a […] dual path length quartz cuvette, using a Photon Technology International fluorescent spectrometer (280 nm excitation and 350 nm emission). Background fluorescence from buffer and IAPP peptides were negligible. The fluorescence quantum yield reported for each time point is an average of 20 reads over 20 seconds (2.5 nm bandwidth and 1 second integration time). Final solution conditions contained 16 mM tris HCl (pH 7.4).

The conditions of data set [4]: Ser-20 substitution; Cao et al. 2011; cited from earlier work.

Positions of bridges follow the written chain, without caps; N, C: chain ends. No end group written: not given here.

T2 sequence (Q15109 23-342): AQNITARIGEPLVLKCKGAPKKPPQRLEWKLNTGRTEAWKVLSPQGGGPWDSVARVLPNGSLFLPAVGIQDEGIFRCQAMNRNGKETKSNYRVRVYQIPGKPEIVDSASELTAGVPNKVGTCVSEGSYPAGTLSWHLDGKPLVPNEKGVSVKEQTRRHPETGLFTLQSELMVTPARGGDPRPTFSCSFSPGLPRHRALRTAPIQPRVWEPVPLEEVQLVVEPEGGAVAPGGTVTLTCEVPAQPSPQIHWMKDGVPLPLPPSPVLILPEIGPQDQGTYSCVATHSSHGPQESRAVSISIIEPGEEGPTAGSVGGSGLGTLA

Consider “I26P-IAPP: I26P point mutant of h-IAPP, inhibitor of h-IAPP amyloid formation (KCNTATCATQRLANFLVHSSNNFGAPLSSTNVGSNTY-NH2; disulfide 2-7; N-terminus assumed; SMILES CC(C)C[C@H](NC(=O)[C@H](CCCNC(=N)N)NC(=O)[C@H](CCC(N)=O)NC(=O)[C@@H](NC(=O)[C@H](C)NC(=O)[C@@H]1CSSC[C@H](NC(=O)[C@@H](N)CCCCN)C(=O)N[C@@H](CC(N)=O)C(=O)N[C@@H]([C@@H](C)O)C(=O)N[C@@H](C)C(=O)N[C@@H]([C@@H](C)O)C(=O)N1)[C@@H](C)O)C(=O)N[C@@H](C)C(=O)N[C@@H](CC(N)=O)C(=O)N[C@@H](Cc1ccccc1)C(=O)N[C@@H](CC(C)C)C(=O)N[C@H](C(=O)N[C@@H](Cc1c[nH]cn1)C(=O)N[C@@H](CO)C(=O)N[C@@H](CO)C(=O)N[C@@H](CC(N)=O)C(=O)N[C@@H](CC(N)=O)C(=O)N[C@@H](Cc1ccccc1)C(=O)NCC(=O)N[C@@H](C)C(=O)N1CCC[C@H]1C(=O)N[C@@H](CC(C)C)C(=O)N[C@@H](CO)C(=O)N[C@@H](CO)C(=O)N[C@H](C(=O)N[C@@H](CC(N)=O)C(=O)N[C@H](C(=O)NCC(=O)N[C@@H](CO)C(=O)N[C@@H](CC(N)=O)C(=O)N[C@H](C(=O)N[C@@H](Cc1ccc(O)cc1)C(N)=O)[C@@H](C)O)C(C)C)[C@@H](C)O)C(C)C)”, for which, in the data set with rat INS-1 β-cells (40 uM, pH 7.4 25° C.), the toxicity by itself entry was “is not toxic by itself”. In addition, the “effect of the amyloid inhibitor on duration of h-IAPP toxicity” value in the data set on rat INS-1 β-cells (1:1 mixture with 40 uM h-IAPP) is “increases the duration of toxicity”. For the same substance, in data set [1] (peptide by itself), the “amyloid formation (thioflavin-T)” value is recorded as “does not form amyloid”. In addition, the “inhibition of h-IAPP amyloid formation” value with h-IAPP is on record as “potent inhibitor of h-IAPP amyloid formation”. Moreover, the “interaction with sRAGE (difference CD)” value in the data set with sRAGE [2] was “does not interact”. In the data set with sRAGE [3], the “binding to sRAGE (tryptophan fluorescence quenching)” value is “No binding was detected”.

As for “S20G-IAPP: S20G mutation of human IAPP, SEQ ID NO: 3 (KCNTATCATQRLANFLVHSGNNFGAILSSTNVGSNTY-NH2; disulfide 2-7; N-terminus assumed; SMILES CC[C@H](C)[C@H](NC(=O)[C@H](C)NC(=O)CNC(=O)[C@H](Cc1ccccc1)NC(=O)[C@H](CC(N)=O)NC(=O)[C@H](CC(N)=O)NC(=O)CNC(=O)[C@H](CO)NC(=O)[C@H](Cc1c[nH]cn1)NC(=O)[C@@H](NC(=O)[C@H](CC(C)C)NC(=O)[C@H](Cc1ccccc1)NC(=O)[C@H](CC(N)=O)NC(=O)[C@H](C)NC(=O)[C@H](CC(C)C)NC(=O)[C@H](CCCNC(=N)N)NC(=O)[C@H](CCC(N)=O)NC(=O)[C@@H](NC(=O)[C@H](C)NC(=O)[C@@H]1CSSC[C@H](NC(=O)[C@@H](N)CCCCN)C(=O)N[C@@H](CC(N)=O)C(=O)N[C@@H]([C@@H](C)O)C(=O)N[C@@H](C)C(=O)N[C@@H]([C@@H](C)O)C(=O)N1)[C@@H](C)O)C(C)C)C(=O)N[C@@H](CC(C)C)C(=O)N[C@@H](CO)C(=O)N[C@@H](CO)C(=O)N[C@H](C(=O)N[C@@H](CC(N)=O)C(=O)N[C@H](C(=O)NCC(=O)N[C@@H](CO)C(=O)N[C@@H](CC(N)=O)C(=O)N[C@H](C(=O)N[C@@H](Cc1ccc(O)cc1)C(N)=O)[C@@H](C)O)C(C)C)[C@@H](C)O; listed as Homo sapiens)”, in the data set with rat INS-1 β-cells (side-by-side with kinetics, 20 uM for the Ser-20 mutants), the “onset and duration of toxicity compared to wild type” value was “faster onset and shorter duration of toxicity compared to wild type”. Moreover, in data set [1] (20 uM, pH 7.4 25° C.), the “rate of aggregation compared to wild type” value is “faster rate of aggregation”. In data set [4], the “lag phase and rate of amyloid formation” value was “abolishes the lag phase and increases the rate of amyloid formation”.
